# In article PMC7377239, “Cardiovascular Effects of Polychlorinated Biphenyls and Their Major Metabolites” (Environmental Health Perspectives, 2020):
# Like-named read-outs stand apart in the source and are kept apart here.
# What was measured:
# [1] = tested on: HUVECs; assay: Tube formation (tubulogenesis) assay in HUVECs, 18 h; type: cell-based, human; conditions: Homo sapiens, HUVEC, 18 h, HUVEC; for activity at 0.1 µM: 0.10 µM
# Summary of the method: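 HUVECs (passage 1–5) seeded on reduced-growth-factor basement membrane and exposed to compounds overnight at 37°C, 5% CO2, in 2× maintenance medium with 12.5 ng/mL VEGF; 0.5% DMSO vehicle. Calcein AM-stained tube networks imaged and analysed; vehicle-normalized readouts fit to four-parameter logistic, POD set at one SD of vehicle means.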
# [2] = tested on: iCell endothelial cells (human iPSC-derived ECs); assay: High-content imaging cytotoxicity in iCell endothelial cells, 24 h; type: cell-based; conditions: Homo sapiens, Endothelial cell, 24 hr; for viability at 0.1 µM / activity at 0.1 µM: 0.10 µM
# Summary of the method: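 Readouts were vehicle-normalised and fitted to a four-parameter logistic model. POD was set at one SD beyond 0.5% DMSO control means, and 100 µM was assigned when no response was seen. Cells were monolayers of iCell endothelial cells imaged after 24 h compound exposure using nuclear, mitochondrial and calcein dyes.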
# [3] = tube formation mtl, read-out: POD huvec.mtl.18hr
# [4] = tube formation tlps, read-out: POD huvec.tlps.18hr
# [5] = tube formation tta, read-out: POD huvec.tta.18hr
# [6] = tube formation ttl, read-out: POD huvec.ttl.18hr
# [7] = HUVECs, 0.00 µM = 100.00, read-out: huvec.mtl.18hr
# [8] = HUVECs, 0.00 µM = 100.00, read-out: huvec.tlps.18hr
# [9] = HUVECs, 0.00 µM = 100.00, read-out: huvec.tta.18hr
# [10] = HUVECs, 0.00 µM = 100.00, read-out: huvec.ttl.18hr
# [11] = endothelial cells (endo), cyto, read-out: POD endo.cyto.24hr
# [12] = endothelial cells (endo), mito, read-out: POD endo.mito.24hr
# [13] = endothelial cells (endo), mitoint, read-out: POD endo.mitoint.24hr
# [14] = endothelial cells (endo), nma, read-out: POD endo.nma.24hr
# [15] = endothelial cells (endo), tc, read-out: POD endo.tc.24hr
# [16] = iPSC-EC, 0.00 µM control = 100.00, read-out: endo.cyto.24hr
# [17] = iPSC-EC, 0.00 µM control = 100.00, read-out: endo.mito.24hr
# [18] = iPSC-EC, 0.00 µM control = 100.00, read-out: endo.mitoint.24hr
# [19] = iPSC-EC, 0.00 µM control = 100.00, read-out: endo.nma.24hr
# [20] = iPSC-EC, 0.00 µM control = 100.00, read-out: endo.tc.24hrs
smiles,measurement,setting,value
"O=C1C=CC(=O)C(c2ccc(Cl)cc2)=C1 [4-Cl-BQ, 2-(4-Chlorophenyl)benzo-2,5-quinone]",minimal effective concentration,[1]; [3],1.18 µM
same,minimal effective concentration,[1]; [4],5.25 µM
same,minimal effective concentration,[1]; [5],0.65 µM
same,minimal effective concentration,[1]; [6],0.25 µM
same,activity at 0.01 µM,[1]; [7],108%
same,activity at 0.01 µM,[1]; [8],136%
same,activity at 0.01 µM,[1]; [9],110%
same,activity at 0.01 µM,[1]; [10],98.6%
same,activity at 0.1 µM,[1]; [7],104%
same,activity at 0.1 µM,[1]; [8],134%
same,activity at 0.1 µM,[1]; [9],99.2%
same,activity at 0.1 µM,[1]; [10],97.1%
same,activity at 1 µM,[1]; [7],92.4%
same,activity at 1 µM,[1]; [8],139%
same,activity at 1 µM,[1]; [9],71%
same,activity at 1 µM,[1]; [10],68.3%
same,activity at 10 µM,[1]; [7],57.7%
same,activity at 10 µM,[1]; [8],26.2%
same,activity at 10 µM,[1]; [9],36.4%
same,activity at 10 µM,[1]; [10],40%
same,activity at 100 µM,[1]; [7],55.2%
same,activity at 100 µM,[1]; [8],14.3%
same,activity at 100 µM,[1]; [9],8.95%
same,activity at 100 µM,[1]; [10],11.6%
same,minimal effective concentration,"[1]; HUVECs, top concentration 100.00 µM, read-out: huvec.mtl.18hr POD",1.18 µM
same,minimal effective concentration,"[1]; HUVECs, top concentration 100.00 µM, read-out: huvec.tlps.18hr POD",5.25 µM
same,minimal effective concentration,"[1]; HUVECs, top concentration 100.00 µM, read-out: huvec.tta.18hr POD",0.65 µM
same,minimal effective concentration,"[1]; HUVECs, top concentration 100.00 µM, read-out: huvec.ttl.18hr POD",0.25 µM
same,minimal effective concentration,[2]; [11],3.82 µM
same,minimal effective concentration,[2]; [12],3.82 µM
same,minimal effective concentration,[2]; [13],14.2 µM
same,minimal effective concentration,[2]; [14],13 µM
same,minimal effective concentration,[2]; [15],2.56 µM
same,viability at 0.01 µM,[2]; [16],90%
same,activity at 0.01 µM,[2]; [17],90.5%
same,activity at 0.01 µM,[2]; [18],114%
same,activity at 0.01 µM,[2]; [19],105%
same,viability at 0.01 µM,[2]; [20],90%
same,viability at 0.1 µM,[2]; [16],89.7%
same,activity at 0.1 µM,[2]; [17],89.9%
same,activity at 0.1 µM,[2]; [18],103%
same,activity at 0.1 µM,[2]; [19],104%
same,viability at 0.1 µM,[2]; [20],89.7%
same,viability at 1 µM,[2]; [16],93.1%
same,activity at 1 µM,[2]; [17],93.1%
same,activity at 1 µM,[2]; [18],99.3%
same,activity at 1 µM,[2]; [19],103%
same,viability at 1 µM,[2]; [20],93.1%
same,viability at 10 µM,[2]; [16],87.8%
same,activity at 10 µM,[2]; [17],87.7%
same,activity at 10 µM,[2]; [18],95.2%
same,activity at 10 µM,[2]; [19],102%
same,viability at 10 µM,[2]; [20],87.8%
same,viability at 100 µM,[2]; [16],12.1%
same,activity at 100 µM,[2]; [17],3.06%
same,activity at 100 µM,[2]; [18],30.1%
same,activity at 100 µM,[2]; [19],161%
same,viability at 100 µM,[2]; [20],31.3%
same,minimal effective concentration,"[2]; iPSC-EC, top concentration 100.00 µM, read-out: endo.cyto.24hr POD",3.82 µM
same,minimal effective concentration,"[2]; iPSC-EC, top concentration 100.00 µM, read-out: endo.mito.24hr POD",3.82 µM
same,minimal effective concentration,"[2]; iPSC-EC, top concentration 100.00 µM, read-out: endo.mitoint.24hr POD",14.2 µM
same,minimal effective concentration,"[2]; iPSC-EC, top concentration 100.00 µM, read-out: endo.nma.24hr POD",13 µM
same,minimal effective concentration,"[2]; iPSC-EC, top concentration 100.00 µM, read-out: endo.tc.24hrs POD",2.56 µM
"Clc1ccc(Cl)c(-c2cc(Cl)ccc2Cl)c1 [PCB 52, 2,2′,5,5′-tetrachlorobiphenyl]",minimal effective concentration,[1]; [3],100 µM
same,minimal effective concentration,[1]; [4],100 µM
same,minimal effective concentration,[1]; [5],100 µM
same,minimal effective concentration,[1]; [6],100 µM
same,minimal effective concentration,[2]; [11],100 µM
same,minimal effective concentration,[2]; [12],100 µM
same,minimal effective concentration,[2]; [13],100 µM
same,minimal effective concentration,[2]; [14],100 µM
same,minimal effective concentration,[2]; [15],100 µM
